# Assay results reported in patent publication US8198317B2, “Methylenedioxy phenolic compounds and their use to treat disease” (The Ohio State University Research Foundation, priority 2008, dated 2012).
# Experiments:
# [1] = system: Watanabe Heritable Hyperlipidemic Rabbits (WHHL); test: Quantitative RT-PCR of genes in thoracic aorta of WHHL rabbits; type: in vivo, rabbit
# Procedure: Total RNA was isolated with TRIzol reagent (Invitrogen). Four microgram of total RNA was reverse transcribed by random hexamers and ThermoScript RT-PCR System (Invitrogen). Quantitative real-time PCR was performed with the Stratagene Mx3005 using SYBER Green PCR Master Mix (Applied Biosystems, Foster City, Calif.). Relative expression level compared to GAPDH was obtained. The primers used in the experiment are depicted in the table below and were purchased from Invitrogen.
# [2] = system: Watanabe Heritable Hyperlipidemic Rabbits (WHHL); test: Superoxide by dihydroethidium staining of WHHL aorta sections; type: in vivo, rabbit
# [3] = system: Watanabe Heritable Hyperlipidemic Rabbits (WHHL); test: Blood lipid profile in WHHL rabbits; type: in vivo, rabbit; conditions: end of treatment
# Procedure: Hypercholesterolemia and oxidative stress occupy an important function in the progress of atherosclerosis. Lipids (cholesterol and LDL) in the blood were evaluated by analyzing the blood samples both at the baseline and the end point measurements. 1 ml of blood from an ear lobe vein was placed into K EDTA tubes at a start of high cholesterol diet and again at the time of sacrifice. All values were expressed as mean±SD. The bar graph of each group for total cholesterol and LDL cholesterol at baseline prior to the initiation of high fat chow, following high fat chow but before intervention and at the end of intervention with INV-75 and control are presented. (FIG. 14 A and FIG. 14B). […] The lack of effect may relate to the genetic model (WHHL) which has extremely high lipid values and a mutation in the LDL receptor. Since INV 75 is believed to function by increasing LDL clearance through an increase in LDL receptor expression, the lack of effect on LDL cholesterol and total cholesterol (major lipoprotein fraction in this model at baseline and in response to high fat chow feeding) is understandable.
# [4] = system: New Zealand White rabbits; test: Oil Red O staining of abdominal aorta of NZW rabbits; type: in vivo, rabbit
# Procedure: (§1) Animal Model: 15 male New Zealand White rabbits (Charles River, Mass.) were fed with high fat diet (HFD) (Harlan Teklad rabbit diet with 0.5% cholesterol, TD 87251). After 4 weeks of high fat diet, rabbits were randomized into three different treatment groups, normal control (n=5), lipoic acid (100 mg/kg/day) (n=5), INV 70-65 (100 mg/kg/day) (n=5). These drugs were administered to the animals via their chow by mixing the drugs with the high fat diet. A fixed amount of chow and drugs admixed in the chow were fed to all animals every day after carefully calculating food intake in each rabbit. Drugs were dissolved in 100% ethanol and sprayed onto the diet and kept under vacuum to let ethanol evaporate overnight. Two (2) weeks after drug or control admixed HFD, all rabbits underwent aortic balloon denudation surgeries followed by 12 weeks of continued administration of drug or controls admixed with HFD. FIG. 29 provides an outline of the experimental design.
# Hypercholesterolemia and oxidative stress play an important role in the development of atherosclerosis. The rabbits were sacrificed and abdominal aortas were fixed in 4% PFA (paraformaldehyde). The lipid deposition in the aortic wall was then visualized by oil red staining.
# [5] = system: thoracic aorta of New Zealand White rabbits; test: Myograph experiments on thoracic aortic rings of NZW rabbits; type: in vivo, rabbit
# Procedure: as §1
# Rabbits were euthanized by injection of lethal doses of pentobarbital. The thoracic aortas were collected for the myograph studies. Two (2) mm thoracic aortic rings were suspended in individual organ chambers filled with physiological salt solution buffer (sodium chloride, 130 mEq/L; potassium chloride, 4.7 mEq/L; calcium dichloride, 1.6 mEq/L; magnesium sulfate, 1.17 mEq/L; potassium diphosphate, 1.18 mEq/L; sodium bicarbonate, 14.9 mEq/L; EDTA, 0.026 mEq/L; and glucose, 99.1 mg/dL [5.5 mmol/L]; pH, 7.4), aerated continuously with 5% carbon dioxide in oxygen at 37° C. Vessels were allowed to equilibrate for at least 1 hour at a resting tension of 30 mN before being subjected to graded doses of agonists. The vasoconstrictor agonist phenylephrine (PE) was used and responses were expressed as a percentage of the peak response to 120 mEq/L of potassium chloride. The vessels subjected to PE were washed thoroughly and allowed to equilibrate for 1 hour before beginning experiments with acetylcholine or sodium nitroprusside (SNP). […] Results for the vasodilators were expressed as a percentage of pre-contraction by PE (0.1 μM).
# Patient = test: Treatment of a patient with chronic myocardial infarction (Example 19); type: in vivo, human; conditions: 1.0 to 100 mg/kg with standard therapy
# Procedure: A person with a prior history of a heart attack (myocardial infarction) 1 year ago presents for evaluation. They are asymptomatic. The patient is administered a composition comprising an effective amount of 3,4-Methylenedioxy 6-nitro phenyl lipoate (INV-7465) (1.0 to 100 mg/kg). Alternate therapies include, 3,4-methylenedioxy phenyl acetate (INV 73); 3,4-methylenedioxy-6-nitrophenol (INV 74); 3,4-methylenedioxy-6-nitrophenyl acetate (INV 75); 3,4-Methylenedioxy 6-nitro phenyl lipoate (INV-7465) or 3,4-Methylenedioxy phenyl lipoate (INV-7065). The composition is administered in conjunction with therapy such as aspirin, a drug to reduce the tendency of platelet aggregation, such as clopidogrel bisulfate, a statin, ezetimibe, an angiotensin converting enzyme inhibitor or angiotensin receptor blocker, and other anti-hypertensive agents such as beta-blockers, using dosages known to one of ordinary skill in the art. Patient notes added benefit in total and LDL cholesterol and a reduction in inflammatory markers such as C reactive protein.
# [6] = NZW thoracic aorta, end of 12 weeks
# [7] = NZW thoracic aorta, end of 12 weeks, % of pre-contraction by PE
smiles,measurement,setting,value
"CC(=O)Oc1cc2c(cc1[N+](=O)[O-])OCO2 [INV-75, 3,4-methylenedioxy-6-nitrophenyl acetate]",mRNA expression of ICAM-1,[1]; WHHL thoracic aorta,decreased
same,mRNA expression of L-selectin,[1]; WHHL thoracic aorta,decreased
same,mRNA expression of MCP-1,[1]; WHHL thoracic aorta,decreased
same,mRNA expression of VCAM-1,[1]; WHHL thoracic aorta,decreased
same,mRNA expression of the angiotensin II Type I receptor,"[1]; WHHL, data not shown",decreased
same,basal super oxide production in the aorta (DHE),[2],reduction
same,LDL cholesterol,[3],no differences
same,total cholesterol,[3],no differences
"O=C(CCCCC1CCSS1)Oc1ccc2c(c1)OCO2 (stereo not drawn) [INV-7065, 3,4-Methylenedioxy phenyl lipoate]",reduction in lipid deposition in the aortic wall compared to controls,[4]; NZW,about 80%
same,reduction in lipid deposition in the aortic wall compared to lipoic acid,[4]; NZW,about 40%
same,lipid content in the plaque area (Oil Red O) compared to the control group,[4]; NZW abdominal aorta,reduction
same,Ach LogEC50,[5]; [6],−6.67 ± 0.16 M
same,PE LogEC50,[5]; [6],−6.28 ± 0.08 M
same,SNP-1 LogEC50,[5]; [6],−7.09 ± 0.16 M
same,PE Maximum Effect,"[5]; NZW thoracic aorta, end of 12 weeks, % of peak response to KCl",109.1 ± 4.78 %
same,Ach Maximum Effect,[5]; [7],−29.84 ± 2.09 %
same,Insulin Maximum Effect,[5]; [7],−132.5 ± 14.59 %
same,SNP-1 Maximum Effect,[5]; [7],−83.06 ± 4.95%
same,effect on Insulin EC50 doses,"[5]; NZW, in words",no effect
same,improving response to acetylcholine when compared to control,"[5]; NZW, in words",no different than lipoic acid
same,relaxation to peak doses of Insulin compared to lipoic acid,"[5]; NZW, in words",improved
same,vascular contractility to alpha receptor agonist,"[5]; NZW, in words",decreases
"O=C(CCCCC1CCSS1)Oc1cc2c(cc1[N+](=O)[O-])OCO2 (stereo not drawn) [INV-7465, 3,4-Methylenedioxy 6-nitro phenyl lipoate]",inflammatory markers such as C reactive protein,Patient,reduction
same,total and LDL cholesterol,Patient,added benefit
